In patent US12077503B2, “Substituted cyclic amides and their use as herbicides” (FMC CORPORATION, priority 2015, dated 2024):

What was measured:
Type in all cases: in vivo
Kochia (Kochia scoparia) [1] = assay: Test A preemergence; conditions: Preemergence
How it was run: (§1)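 Preemergence directed soil spray on seeded pots, or postemergence application to plants 2–10 cm, one- to two-leaf. Solvent mixture non-phytotoxic, with surfactant. Scored ~10 d later, visually, 0–100 vs untreated.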

[2] = system: barnyardgrass (Echinochloa crus-galli); assay: Test A preemergence; conditions: Preemergence
How it was run: as §1

[3] = system: giant foxtail (Setaria faberii); assay: Test A preemergence; conditions: Preemergence
How it was run: as §1

[4] = system: pigweed (Amaranthus retroflexus); assay: Test A preemergence; conditions: Preemergence
[5] = system: ragweed (common ragweed, Ambrosia elatior); assay: Test A preemergence; conditions: Preemergence
How it was run: as §1

[6] = system: ryegrass, Italian (Italian ryegrass, Lolium multiflorum); assay: Test A preemergence; conditions: Preemergence
How it was run: as §1

[7] = system: Galium (catchweed bedstraw, Galium aparine); assay: Test A postemergence
How it was run: as §1

Kochia (Kochia scoparia) [8] = assay: Test A postemergence
How it was run: as §1

[9] = system: barnyardgrass (Echinochloa crus-galli); assay: Test A postemergence
How it was run: as §1

[10] = system: blackgrass (Alopecurus myosuroides); assay: Test A postemergence
How it was run: as §1

corn (Zea mays) = assay: Test A postemergence
How it was run: as §1

[11] = system: giant foxtail (Setaria faberii); assay: Test A postemergence
How it was run: as §1

[12] = system: pigweed (Amaranthus retroflexus); assay: Test A postemergence
How it was run: as §1

[13] = system: ragweed (common ragweed, Ambrosia elatior); assay: Test A postemergence
How it was run: as §1

[14] = system: ryegrass, Italian (Italian ryegrass, Lolium multiflorum); assay: Test A postemergence
How it was run: as §1

[15] = system: wheat (Triticum aestivum); assay: Test A postemergence
How it was run: as §1

[16] = system: barnyardgrass (Echinochloa crus-galli); assay: Test B flooded paddy test; conditions: Flood, 500 g ai/ha; 0 to 100 scale where 0 is no effect and 100 is complete control; 13 to 15 d
How it was run: (§2)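 Plants at 2-leaf stage flooded to 3 cm above soil, with compounds applied directly to paddy water and that depth maintained. Plants kept in greenhouse 13–15 d. Visual rating versus controls on a 0 (no effect) to 100 (complete control) scale.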

[17] = system: ducksalad (Heteranthera limosa); assay: Test B flooded paddy test; conditions: Flood, 500 g ai/ha; 0 to 100 scale where 0 is no effect and 100 is complete control; 13 to 15 d
How it was run: as §2

rice (Oryra sativa) = assay: Test B flooded paddy test; conditions: Flood, 500 g ai/ha; 0 to 100 scale where 0 is no effect and 100 is complete control; 13 to 15 d
How it was run: as §2

[18] = system: sedge, umbrella (small-flower umbrella sedge, Cyperus difformis); assay: Test B flooded paddy test; conditions: Flood, 500 g ai/ha; 0 to 100 scale where 0 is no effect and 100 is complete control; 13 to 15 d
How it was run: as §2

[19] = 125 g ai/ha, visual injury after approximately 10 d, 0 to 100 scale where 0 is no effect and 100 is complete control
[20] = 500 g ai/ha, visual injury approx. 10 d
[21] = 125 g ai/ha, postemergence, visual rating after approx. 10 d, 0 to 100 scale (0 no effect, 100 complete control)
[22] = Postemergence, 500 g ai/ha, 0 to 100 scale where 0 is no effect and 100 is complete control
[23] = 125 g ai/ha, postemergence, visual injury rating on 0 to 100 scale (0 no effect, 100 complete control), approx. 10 d

O=C1NCC(c2ccc(Oc3ccccc3)cc2)C1C(=O)Nc1ccc(F)cc1F (racemic) [Compound 535]
Plant response rating, Kochia (Kochia (Kochia scoparia) [1]; [19]): 0
Kochia plant response rating (0 to 100 scale, 0 is no effect, 100 is complete control) (Kochia (Kochia scoparia) [1]; [20]): 0
Plant response rating, Barnyardgrass [2, 19]: 0
Barnyardgrass plant response rating (0 to 100 scale, 0 is no effect, 100 is complete control) [2, 20]: 0
Plant response rating, Foxtail, Giant [3, 19]: 0
Foxtail, Giant plant response rating (0 to 100 scale, 0 is no effect, 100 is complete control) [3, 20]: 0
Plant response rating, Pigweed [4, 19]: 0
Pigweed plant response rating (0 to 100 scale, 0 is no effect, 100 is complete control) [4, 20]: 0
Plant response rating, Ragweed [5, 19]: 0
Ragweed plant response rating (0 to 100 scale, 0 is no effect, 100 is complete control) [5, 20]: 0
Plant response rating, Ryegrass, Italian [6, 19]: 0
Ryegrass, Italian plant response rating (0 to 100 scale, 0 is no effect, 100 is complete control) [6, 20]: 0
Plant response rating, Galium [7, 21]: 0
Plant response rating, Galium [7, 22]: 0
Plant response rating, Kochia (Kochia (Kochia scoparia) [8]; [21]): 0
Plant response rating, Kochia (Kochia (Kochia scoparia) [8]; [22]): 0
Barnyardgrass plant response rating [9, 23]: 0
Plant response rating, Barnyardgrass [9, 22]: 0
Blackgrass plant response rating [10, 23]: 0
Plant response rating, Blackgrass [10, 22]: 0
Plant response rating, Corn (corn (Zea mays); [21]): 0
Plant response rating, Corn (corn (Zea mays); [22]): 0
Plant response rating, Foxtail, Giant [11, 21]: 0
Plant response rating, Foxtail, Giant [11, 22]: 0
Plant response rating, Pigweed [12, 21]: 0
Plant response rating, Pigweed [12, 22]: 0
Plant response rating, Ragweed [13, 21]: 0
Plant response rating, Ragweed [13, 22]: 0
Plant response rating, Ryegrass, Italian [14, 21]: 0
Plant response rating, Ryegrass, Italian [14, 22]: 0
Plant response rating, Wheat [15, 21]: 0
Plant response rating, Wheat [15, 22]: 0
Plant response rating, Barnyardgrass [16]: 0
Plant response rating, Ducksalad [17]: 20
Plant response rating, Rice (rice (Oryra sativa)): 0
Plant response rating, Sedge, Umbrella [18]: 50
